Source: patent US20240342156A1, “METHODS FOR TREATING PAIN” (Xenon Pharmaceuticals Inc., priority 2019, published 2024)

How the values were obtained:
[1] = system: rat spinal nerve ligation (SNL)/Chung model of neuropathic pain; assay: Spinal nerve ligation (SNL)/Chung model, thermal allodynia, cold plate test on lesioned paw; format: in vivo
Procedure: (§1) Objective: The efficacy of Compound A was assessed using the rat spinal nerve ligation (SNL)/Chung model of neuropathic pain. The SNL model in rats was developed as described previously (Chung J M, Kim H K, Chung K. “Segmental spinal nerve ligation model of neuropathic pain.” Methods Mol. Med. 99 (2004) 35-45).
Study Design. Briefly, on Day 0, von Frey and cold plate tests were used for baseline measurements of tactile and cold allodynia respectively. Post-baseline measurements, rats (171-209 g male Sprague Dawley) were anesthetized and an incision at the L4-S2 level was performed to expose the left L5 nerve. […] The wound was then sutured and the rats were allowed to recover. On Day 13, post-surgery baselines for tactile and cold allodynia were measured to verify neuropathic pain. Animals were assigned to treatment groups based on the post-surgery baseline score.
(§2) Dosing: For efficacy testing, Compound A was dosed orally once a day for 5 consecutive days from Day 14-18.
The cold plate apparatus was maintained at 4±1° C. and was surrounded by an acrylic glass enclosure. Rats were placed on the plate for a period of 5 minutes. The latency to 1st paw-withdrawal, total number of paw withdrawals, and total duration of withdrawal responses were recorded for the surgery hind paw.

[2] = system: rat spinal nerve ligation (SNL)/Chung model of neuropathic pain; assay: Spinal nerve ligation (SNL)/Chung model, tactile allodynia, electronic von Frey test on lesioned paw; format: in vivo
Procedure: as §1
(§3) Study Design. Briefly, on Day 0, von Frey and cold plate tests were used for baseline measurements of tactile and cold allodynia respectively. Post-baseline measurements, rats (171-209 g male Sprague Dawley) were anesthetized and an incision at the L4-S2 level was performed to expose the left L5 nerve. A ligature was tied tightly around the L5 nerve (Chung et al.; R. Dost et al., “The anti-hyperalgesic activity of Retigabine is mediated by KCNQ potassium channel activation.” Naunyn-Schmiedeberg's Arch. Pharmacol. 369 (2004) 382-390; Gordon Blackburn-Munro et al., “The anticonvulsant retigabine attenuates nociceptive behaviors in rat models of persistent and neuropathic pain.” Eur. J Pharmacol. 460 (2003) 109-116; and Wu Y J et al., “Discovery of (S,E)-3-(2-fluorophenyl)-N-(1-(3-(pyridin-3-yloxy)phenyl)ethyl)-acrylamide as a potent and efficacious KCNQ2 (Kv7.2) opener for the treatment of neuropathic pain.” Bioorg Med. Chem. Lett. 23 (2013) 6188-91). The wound was then sutured and the rats were allowed to recover. On Day 13, post-surgery baselines for tactile and cold allodynia were measured to verify neuropathic pain. Animals were assigned to treatment groups based on the post-surgery baseline score.
as §2
Rats were placed under an inverted acrylic plastic box on a grid floor. The tip of an electronic von Frey probe was then applied with increasing force to the surgery hind paw and the force required to induce paw-withdrawal was automatically recorded. The procedure was carried out 3 times and the mean paw withdrawal force was calculated. The experimenter was double blinded to treatment.

[3] = Body weight of SNL rats over the duration of testing; format: in vivo, rat
Procedure: as §3, §2

[4] = Day 14, test 1 h after administration, 128 mg/kg p.o.
[5] = Day 18, test 1 h after administration, 128 mg/kg p.o. once on Day 14 and on Day 18
[6] = Day 18 at 2 h, 20 mg/kg p.o. once daily Day 14-18

CN1CC[C@]23c4c5ccc(O)c4O[C@H]2[C@@H](O)C=C[C@H]3[C@H]1C5.Cl [Morphine, Morphine hydrochloride, reference compound]
Latency to first paw-withdrawal (s), Mean ± s.e.m. [1, 4]: 201.3 ± 35.8 s
Latency to first paw-withdrawal, compared with Vehicle (p.o.), Δ% [1, 4]: +55%
Number of withdrawal responses, Mean ± s.e.m. [1, 4]: 7.9 ± 2.8
Number of withdrawal responses, compared with Vehicle (p.o.), Δ% [1, 4]: −22%
Latency to first paw-withdrawal (s), Mean ± s.e.m. [1, 5]: 235.8 ± 33.2 s
Latency to first paw-withdrawal, compared with Vehicle (p.o.), Δ% [1, 5]: +150%
Number of withdrawal responses, Mean ± s.e.m. [1, 5]: 4.6 ± 2.8
Number of withdrawal responses, compared with Vehicle (p.o.), Δ% [1, 5]: −58%
Force inducing paw-withdrawal (g), Delta from baseline compared with Vehicle (p.o.), Δ [2, 4]: +27.4 g
Force inducing paw-withdrawal (g), Delta from baseline, Mean ± s.e.m. [2, 4]: +27.7 ± 5.6 g
Force inducing paw-withdrawal (g), Mean ± s.e.m. [2, 4]: 50.6 ± 5.0 g
Force inducing paw-withdrawal (g), Delta from baseline compared with Vehicle (p.o.), Δ [2, 5]: +24.3 g
Force inducing paw-withdrawal (g), Delta from baseline, Mean ± s.e.m. [2, 5]: +27.1 ± 4.6 g
Force inducing paw-withdrawal (g), Mean ± s.e.m. [2, 5]: 50.0 ± 4.5 g
Body weight (g) (mean ± s.e.m.) ([3]; Day 14, 128 mg/kg p.o. once on Day 14 and on Day 18): 295.9 ± 4.6 g
Body weight (g) (mean ± s.e.m.) ([3]; Day 15, 128 mg/kg p.o. once on Day 14 and on Day 18): 312.8 ± 5.5 g
Body weight (g) (mean ± s.e.m.) ([3]; Day 16, 128 mg/kg p.o. once on Day 14 and on Day 18): 302.0 ± 5.4 g
Body weight (g) (mean ± s.e.m.) ([3]; Day 17, 128 mg/kg p.o. once on Day 14 and on Day 18): 298.9 ± 5.4 g
Body weight (g) (mean ± s.e.m.) ([3]; Day 18, 128 mg/kg p.o. once on Day 14 and on Day 18): 306.7 ± 5.2 g

CCOC(=O)Nc1ccc(NCc2ccc(F)cc2)cc1N [Retigabine, reference compound]
Latency to first paw-withdrawal (s), Mean ± s.e.m. ([1]; Day 14 at 2 h, 20 mg/kg p.o.): 272.7 ± 20.1 s
Latency to first paw-withdrawal, compared with Vehicle (p.o.), Δ% ([1]; Day 14 at 2 h, 20 mg/kg p.o.): +110%
Number of withdrawal responses, Mean ± s.e.m. ([1]; Day 14 at 2 h, 20 mg/kg p.o.): 1.5 ± 1.3
Number of withdrawal responses, compared with Vehicle (p.o.), Δ% ([1]; Day 14 at 2 h, 20 mg/kg p.o.): −85%
Total duration of withdrawal responses (s), Mean ± s.e.m. ([1]; Day 14 at 2 h, 20 mg/kg p.o.): 0.3 ± 0.3 s
Total duration of withdrawal responses, compared with Vehicle (p.o.), Δ% ([1]; Day 14 at 2 h, 20 mg/kg p.o.): −86%
Latency to first paw-withdrawal (s), Mean ± s.e.m. [1, 6]: 209.3 ± 36.1 s
Latency to first paw-withdrawal, compared with Vehicle (p.o.), Δ% [1, 6]: +122%
Number of withdrawal responses, Mean ± s.e.m. [1, 6]: 3.4 ± 1.3
Number of withdrawal responses, compared with Vehicle (p.o.), Δ% [1, 6]: −69%
Total duration of withdrawal responses (s), Mean ± s.e.m. [1, 6]: 27.3 ± 23.5 s
Total duration of withdrawal responses, compared with Vehicle (p.o.), Δ% [1, 6]: +153%
Force inducing paw-withdrawal (g), Delta from baseline compared with Vehicle (p.o.), Δ ([2]; Day 14 at 2 h, 20 mg/kg p.o.): +4.0 g
Force inducing paw-withdrawal (g), Delta from baseline, Mean ± s.e.m. ([2]; Day 14 at 2 h, 20 mg/kg p.o.): +4.0 ± 2.2 g
Force inducing paw-withdrawal (g), Mean ± s.e.m. ([2]; Day 14 at 2 h, 20 mg/kg p.o.): 26.5 ± 2.5 g
Force inducing paw-withdrawal (g), Delta from baseline compared with Vehicle (p.o.), Δ [2, 6]: +6.4 g
Force inducing paw-withdrawal (g), Delta from baseline, Mean ± s.e.m. [2, 6]: +9.2 ± 2.1 g
Force inducing paw-withdrawal (g), Mean ± s.e.m. [2, 6]: 31.8 ± 2.2 g
Body weight (g) (mean ± s.e.m.) ([3]; Day 14, 20 mg/kg p.o. once daily Day 14-18): 300.8 ± 4.8 g
Body weight (g) (mean ± s.e.m.) ([3]; Day 15, 20 mg/kg p.o. once daily Day 14-18): 312.6 ± 5.1 g
Body weight (g) (mean ± s.e.m.) ([3]; Day 16, 20 mg/kg p.o. once daily Day 14-18): 321.1 ± 5.2 g
Body weight (g) (mean ± s.e.m.) ([3]; Day 17, 20 mg/kg p.o. once daily Day 14-18): 330.6 ± 5.3 g
Body weight (g) (mean ± s.e.m.) ([3]; Day 18, 20 mg/kg p.o. once daily Day 14-18): 336.8 ± 5.7 g
